According to ChEMBL document CHEMBL2413050, “Design and synthesis of conformationally restricted capsaicin analogues based in the 1, 3, 4-thiadiazole heterocycle reveal a novel family of transient receptor potential vanilloid 1 (TRPV1) antagonists” (Eur J Med Chem, 2013):

Key:
[1] = target: T1, Uncharacterized protein (Gallus gallus) (UniProt F1NJH8); experiment: Antagonist activity at chicken TRPV1 receptor assessed as inhibition of capsaicin-induced calcium flux at 1 uM after 30 mins by cell based Fluo-4AM fluorescence assay relative to control
T1 sequence (whole entry): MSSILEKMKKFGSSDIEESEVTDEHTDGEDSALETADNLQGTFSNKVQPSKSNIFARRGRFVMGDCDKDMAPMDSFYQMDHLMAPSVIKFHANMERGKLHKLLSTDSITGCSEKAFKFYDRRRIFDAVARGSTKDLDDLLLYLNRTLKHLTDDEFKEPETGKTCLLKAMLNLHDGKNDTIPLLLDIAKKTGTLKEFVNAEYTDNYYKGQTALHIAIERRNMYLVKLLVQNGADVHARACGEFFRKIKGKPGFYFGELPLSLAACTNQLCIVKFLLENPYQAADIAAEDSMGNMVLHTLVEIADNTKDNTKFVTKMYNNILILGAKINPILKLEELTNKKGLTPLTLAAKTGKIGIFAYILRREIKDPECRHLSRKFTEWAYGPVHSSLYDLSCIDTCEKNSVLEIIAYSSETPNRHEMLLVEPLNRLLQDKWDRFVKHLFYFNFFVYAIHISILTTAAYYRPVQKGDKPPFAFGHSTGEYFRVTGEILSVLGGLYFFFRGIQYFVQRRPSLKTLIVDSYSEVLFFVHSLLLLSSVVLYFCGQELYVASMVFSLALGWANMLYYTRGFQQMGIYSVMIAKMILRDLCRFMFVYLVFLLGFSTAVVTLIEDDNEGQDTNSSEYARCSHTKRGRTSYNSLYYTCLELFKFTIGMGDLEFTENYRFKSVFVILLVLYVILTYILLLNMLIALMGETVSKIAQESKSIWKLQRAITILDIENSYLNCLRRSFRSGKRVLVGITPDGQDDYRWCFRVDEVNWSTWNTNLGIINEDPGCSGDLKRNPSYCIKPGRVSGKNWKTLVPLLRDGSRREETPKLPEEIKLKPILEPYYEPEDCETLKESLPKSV

[2] = target: T2, Transient receptor potential cation channel subfamily V member 1 (Rattus norvegicus, UniProt O35433); experiment: Antagonist activity at rat TRPV1 receptor expressed in HEK293T cells assessed as inhibition of capsaicin-induced calcium flux after 30 mins by Fluo-4AM based fluorescence assay; assay type: cell-based, HEK-293T
[3] = target: T2, Transient receptor potential cation channel subfamily V member 1; experiment: Antagonist activity at rat TRPV1 receptor expressed in HEK293T cells assessed as inhibition of temperature-induced calcium flux after 30 mins by Fluo-4AM based fluorescence assay; assay type: cell-based, HEK-293T
[4] = target: Transient receptor potential cation channel subfamily V member 1 (Rattus norvegicus) (UniProt O35433); experiment: Antagonist activity at rat TRPV1 receptor expressed in HEK293T cells assessed as inhibition of capsaicin-induced calcium flux at 1 uM after 30 mins by Fluo-4AM based fluorescence assay relative to control; assay type: cell-based; settings: HEK-293T
[5] = target: Transient receptor potential cation channel subfamily V member 1 (Rattus norvegicus) (UniProt O35433); experiment: Antagonist activity at rat TRPV1 receptor expressed in HEK293T cells assessed as inhibition of temperature-induced calcium flux at 1 uM after 30 mins by Fluo-4AM based fluorescence assay relative to control; assay type: cell-based; settings: HEK-293T

Transient receptor potential cation channel subfamily V member 1 (Rattus norvegicus), sequence (O35433 whole entry): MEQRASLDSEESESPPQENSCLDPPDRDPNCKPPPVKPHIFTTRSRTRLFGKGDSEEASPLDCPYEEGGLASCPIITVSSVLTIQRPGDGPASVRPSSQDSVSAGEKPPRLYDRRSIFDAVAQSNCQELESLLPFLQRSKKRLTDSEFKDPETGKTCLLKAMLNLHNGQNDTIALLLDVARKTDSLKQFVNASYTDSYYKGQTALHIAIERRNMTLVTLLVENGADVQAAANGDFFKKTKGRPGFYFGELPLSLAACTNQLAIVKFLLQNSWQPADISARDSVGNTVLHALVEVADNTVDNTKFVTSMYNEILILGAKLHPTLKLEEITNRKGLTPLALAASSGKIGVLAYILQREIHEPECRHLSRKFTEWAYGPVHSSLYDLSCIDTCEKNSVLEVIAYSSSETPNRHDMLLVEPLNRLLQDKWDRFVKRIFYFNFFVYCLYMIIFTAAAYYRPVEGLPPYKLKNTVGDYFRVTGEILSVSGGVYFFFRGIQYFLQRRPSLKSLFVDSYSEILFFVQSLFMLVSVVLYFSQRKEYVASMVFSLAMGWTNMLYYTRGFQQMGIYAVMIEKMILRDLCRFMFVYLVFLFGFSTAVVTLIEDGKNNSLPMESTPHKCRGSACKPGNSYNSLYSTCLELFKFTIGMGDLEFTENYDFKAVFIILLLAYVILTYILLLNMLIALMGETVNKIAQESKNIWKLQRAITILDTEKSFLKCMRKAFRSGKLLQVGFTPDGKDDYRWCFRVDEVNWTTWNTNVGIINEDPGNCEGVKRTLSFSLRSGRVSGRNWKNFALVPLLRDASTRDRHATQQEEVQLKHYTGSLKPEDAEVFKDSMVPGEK
T2 sequence (O35433 whole entry): as above

inhibition [1] [%]	IC50 [2] [nM]	IC50 [3] [nM]	inhibition [4] [%]	inhibition [5] [%]	Compound
85.4	0.33	1.09	94.5	93.7	CCCCCCCC(=O)Nc1nnc(-c2cc(I)c(O)c(OC)c2)s1
79.4	0.18	0.05	98.8	92.9	CCCCCCCCC(=O)Nc1nnc(-c2ccc(O)c(OC)c2)s1
81.2	0.15	–	97.7	89.8	CCCCCCCC(=O)Nc1nnc(-c2ccc(O)c(OC)c2)s1
95.3	1.47	0.29	96.6	94.3	CCCCCC(=O)Nc1nnc(-c2cc(I)c(O)c(OC)c2)s1
–	6.07	–	90.8	92.4	CCCCCCC(=O)Nc1nnc(-c2cc(I)c(O)c(OC)c2)s1
80.1	0.34	0.15	96.9	91.9	CCCCCCCCC(=O)Nc1nnc(-c2cc(I)c(O)c(OC)c2)s1
92.6	2.61	–	95.5	88.8	CCCCCC(=O)Nc1nnc(-c2ccc(O)c(OC)c2)s1
–	0.77	–	95.3	94	CCCCCCC(=O)Nc1nnc(-c2ccc(O)c(OC)c2)s1
8.97	–	–	92.7	66.4	CC(C)(C)c1ccc(NC(=O)N2CCN(c3ncccc3Cl)CC2)cc1
